The values below come from ChEMBL document CHEMBL2040820, “Synthesis and selective cytotoxic activity of novel hybrid chalcones against prostate cancer cells” (Bioorg Med Chem Lett, 2012).

In assay [1] the test system is NCI-H460. Description: Anticancer activity against human NCI-H460 cells after 48 hrs by MTT assay. Type of assay: functional, cell-based. The following applies: NCI-H460, 48 h. On the technique in general: Tetrazolium assays rely on reduction of a dye to a coloured formazan, in cell work by metabolically active cells.
Assay [2] concerns HT-29. Description: Anticancer activity against human HT-29 cells after 48 hrs by MTT assay. The class given is functional, cell-based. The following applies: HT-29, 48 h.
Assay [3] has as its system B16. Description: Anticancer activity against mouse B16 cells after 48 hrs by MTT assay. The class given is functional, cell-based. Conditions: B16, 48 h.
Assay [4] has as its system PC-3. Description: Anticancer activity against human PC3 cells after 48 hrs by MTT assay. Type of assay: functional, cell-based. Conditions: PC-3, 48 h.
Assay [5] deals with B16. Description: Growth inhibition of mouse B16 cells at 100 uM after 48 hrs by MTT assay. The class given is functional. Conditions: B16, 48 h, read-out: GI.
The test system of assay [6] is HT-29. Description: Growth inhibition of human HT-29 cells at 100 uM after 48 hrs by MTT assay. Type of assay: functional. Conditions: HT-29, 48 h, read-out: GI.
Assay [7] concerns PC-3. Description: Growth inhibition of human PC3 cells at 100 uM after 48 hrs by MTT assay. Type of assay: functional. The following applies: PC-3, 48 h, read-out: GI.
Assay [8] relates to NCI-H460. Description: Growth inhibition of human NCI-H460 cells at 100 uM after 48 hrs by MTT assay. The class given is functional. Conditions: NCI-H460, 48 h, read-out: GI.

The IC50 is the midpoint of a concentration-inhibition curve. Read a low IC50 as greater potency in that assay. In the case of `CC1(C)Cc2c(ccc(C(=O)/C=C/c3ccccc3)c2OCc2ccccc2)O1`, the IC50 in the assay with NCI-H460 [1], in the assay with HT-29 [2], in the assay with B16 [3] and with PC-3 [4] was above 100 µM throughout.
As for `CC1(C)Cc2c(ccc(C(=O)/C=C/c3ccc(F)cc3)c2OCc2ccccc2)O1`, the IC50 in the assay on NCI-H460 [1] is 75.8 µM; in the assay with HT-29 [2], 23 µM; in the assay on B16 [3], above 100 µM; with PC-3 [4], 44.2 µM.
Consider `CC1(C)Cc2c(ccc(C(=O)/C=C/c3ccc(Cl)cc3)c2OCc2ccccc2)O1`, for which the IC50 in the assay with NCI-H460 [1], in the assay on HT-29 [2] and with PC-3 [4] was above 100 µM throughout. In addition, the inhibition of growth at 100 µM in the assay with B16 [5] was below 10%.
`CC1(C)Cc2c(ccc(C(=O)/C=C/c3ccc(Br)cc3)c2OCc2ccccc2)O1`: the half-maximal inhibitory concentration (IC50) with NCI-H460 [1] is above 100 µM; with PC-3 [4] it was above 50 µM. The inhibition of growth at 100 µM in the assay on B16 [5] and with HT-29 [6] was below 10% throughout.
Regarding `COc1ccc(/C=C/C(=O)c2ccc3c(c2OCc2ccccc2)CC(C)(C)O3)cc1`, the figures for the half-maximal inhibitory concentration (IC50) in the assay on NCI-H460 [1], in the assay on B16 [3] and in the assay with PC-3 [4] were above 100 µM, above 100 µM and 48.9 µM, respectively. Also, in the assay with HT-29 [6], the inhibition of growth at 100 µM was below 10%.
`CC1(C)Cc2c(ccc(C(=O)/C=C/c3ccc(Cl)cc3Cl)c2OCc2ccccc2)O1`: the half-maximal inhibitory concentration (IC50) in the assay on NCI-H460 [1], in the assay with HT-29 [2] and with B16 [3] was above 100 µM each time. Moreover, in the assay with PC-3 [7], the inhibition of growth at 100 µM was below 10%.
`CC1(C)Cc2c(ccc(C(=O)/C=C/c3cn(-c4ccccc4)nc3-c3ccccc3)c2OCc2ccccc2)O1`: in the assay on NCI-H460 [8], the inhibition of growth at 100 µM was below 10%. The concentration for half-maximal inhibition (IC50) in the assay with HT-29 [2], in the assay with B16 [3] and in the assay on PC-3 [4] was above 100 µM each time.
In the case of `Cc1ccc(-c2nn(-c3ccccc3)cc2/C=C/C(=O)c2ccc3c(c2OCc2ccccc2)CC(C)(C)O3)cc1`, the IC50 is above 100 µM in the assay with NCI-H460 [1], above 100 µM with HT-29 [2] and 24.2 µM with PC-3 [4]. Besides, the inhibition of growth at 100 µM with B16 [5] is below 10%.
Turning to `CC1(C)Cc2c(ccc(C(=O)/C=C/c3cn(-c4ccccc4)nc3-c3ccc(Cl)cc3)c2OCc2ccccc2)O1`, the figures for the half-maximal inhibitory concentration (IC50) in the assay with NCI-H460 [1], in the assay with HT-29 [2] and in the assay on PC-3 [4] were above 100 µM, above 100 µM and 26 µM, respectively. For the same compound, in the assay with B16 [5], the inhibition of growth at 100 µM was below 10%.
Take `COc1ccc(-c2nn(-c3ccccc3)cc2/C=C/C(=O)c2ccc3c(c2OCc2ccccc2)CC(C)(C)O3)cc1`: the IC50 with NCI-H460 [1] was above 100 µM; with HT-29 [2], above 100 µM; in the assay with PC-3 [4], 18.4 µM. For the same compound, the inhibition of growth at 100 µM in the assay on B16 [5] was below 10%.
In the case of `CC1(C)Cc2c(ccc(C(=O)/C=C/c3cn(-c4ccccc4)nc3-c3ccc([N+](=O)[O-])cc3)c2OCc2ccccc2)O1`, the inhibition of growth at 100 µM in the assay with NCI-H460 [8], in the assay with B16 [5] and in the assay on HT-29 [6] was below 10% throughout. In the assay with PC-3 [4], half-maximal inhibition (IC50) was put at 62.3 µM.
Turning to `CC1(C)Cc2c(ccc(C(=O)/C=C/c3cn(-c4ccccc4)nc3-c3cccc([N+](=O)[O-])c3)c2OCc2ccccc2)O1`, the half-inhibitory concentration (IC50) in the assay with NCI-H460 [1] was above 100 µM; in the assay on HT-29 [2], above 100 µM; with B16 [3], above 50 µM; with PC-3 [4], above 100 µM.
On to `CC1(C)Cc2c(OCc3ccccc3)ccc(C(=O)/C=C/c3ccccc3)c2O1`, for which the IC50 in the assay on NCI-H460 [1] was above 100 µM; in the assay with B16 [3] it was 30.3 µM. Besides, the inhibition of growth at 100 µM in the assay with PC-3 [7] and in the assay with HT-29 [6] was below 10% each time.
For `CC1(C)Cc2c(OCc3ccccc3)ccc(C(=O)/C=C/c3ccc(F)cc3)c2O1`, the concentration for half-maximal inhibition (IC50) was 22.3 µM in the assay on NCI-H460 [1] and above 100 µM in the assay with B16 [3]. Also, the inhibition of growth at 100 µM with PC-3 [7] and with HT-29 [6] was below 10% throughout.
As for `CC1(C)Cc2c(OCc3ccccc3)ccc(C(=O)/C=C/c3ccc(Cl)cc3)c2O1`, the inhibition of growth at 100 µM in the assay on NCI-H460 [8] and in the assay on HT-29 [6] was below 10% each time. The 50% inhibitory concentration (IC50) in the assay on B16 [3] and in the assay on PC-3 [4] was above 100 µM throughout.
With `CC1(C)Cc2c(OCc3ccccc3)ccc(C(=O)/C=C/c3ccc(Br)cc3)c2O1`, the IC50 with NCI-H460 [1], in the assay with HT-29 [2] and in the assay with PC-3 [4] was above 100 µM each time. Besides, the inhibition of growth at 100 µM in the assay on B16 [5] was below 10%.
In the case of `COc1ccc(/C=C/C(=O)c2ccc(OCc3ccccc3)c3c2OC(C)(C)C3)cc1`, the IC50 in the assay on NCI-H460 [1] is above 100 µM; with PC-3 [4] it was 13.5 µM. Further, the inhibition of growth at 100 µM in the assay with B16 [5] and in the assay on HT-29 [6] was below 10% each time.
On to `CC1(C)Cc2c(OCc3ccccc3)ccc(C(=O)/C=C/c3ccc(Cl)cc3Cl)c2O1`, for which the inhibition of growth at 100 µM in the assay with NCI-H460 [8], in the assay with B16 [5] and in the assay with HT-29 [6] was below 10% in each case. For the same compound, the IC50 in the assay with PC-3 [4] is above 100 µM.
Consider `CC1(C)Cc2c(OCc3ccccc3)ccc(C(=O)/C=C/c3cn(-c4ccccc4)nc3-c3ccccc3)c2O1`, for which the inhibition of growth at 100 µM in the assay on NCI-H460 [8], in the assay with PC-3 [7] and in the assay with HT-29 [6] was below 10% in each case. Further, the concentration for half-maximal inhibition (IC50) in the assay with B16 [3] was above 100 µM.
As for `Cc1ccc(-c2nn(-c3ccccc3)cc2/C=C/C(=O)c2ccc(OCc3ccccc3)c3c2OC(C)(C)C3)cc1`, the inhibition of growth at 100 µM with NCI-H460 [8] and in the assay with HT-29 [6] was below 10% throughout. The IC50 with B16 [3] and with PC-3 [4] was above 100 µM in each case.
With `CC1(C)Cc2c(OCc3ccccc3)ccc(C(=O)/C=C/c3cn(-c4ccccc4)nc3-c3ccc(Cl)cc3)c2O1`, the inhibition of growth at 100 µM in the assay with NCI-H460 [8], in the assay on B16 [5] and in the assay on HT-29 [6] was below 10% each time. In the assay on PC-3 [4], the midpoint of inhibition, the IC50, lay at 8.4 µM.
For `COc1ccc(-c2nn(-c3ccccc3)cc2/C=C/C(=O)c2ccc(OCc3ccccc3)c3c2OC(C)(C)C3)cc1`, the inhibition of growth at 100 µM in the assay on NCI-H460 [8] and with B16 [5] was below 10% throughout. Besides, the IC50 in the assay with HT-29 [2] was above 100 µM; with PC-3 [4] it was 7.9 µM.
Regarding `CC1(C)Cc2c(OCc3ccccc3)ccc(C(=O)/C=C/c3cn(-c4ccccc4)nc3-c3ccc([N+](=O)[O-])cc3)c2O1`, the IC50 in the assay with NCI-H460 [1], in the assay with HT-29 [2], in the assay on B16 [3] and in the assay with PC-3 [4] was above 100 µM each time.
Take `CC1(C)Cc2c(OCc3ccccc3)ccc(C(=O)/C=C/c3cn(-c4ccccc4)nc3-c3cccc([N+](=O)[O-])c3)c2O1`: the IC50 in the assay on NCI-H460 [1] is above 100 µM; in the assay on PC-3 [4] it was 5.9 µM. Moreover, the inhibition of growth at 100 µM in the assay with B16 [5] and in the assay with HT-29 [6] was below 10% throughout.
In the assay with PC-3 [4], `COc1ccc(/C=C/C(=O)c2ccc(O)c3c2OC(C)(C)C3)cc1` registered an IC50 of 48.4 µM.
As to `CC1(C)Cc2c(O)ccc(C(=O)/C=C/c3cn(-c4ccccc4)nc3-c3ccc(Cl)cc3)c2O1`, the IC50 in the assay on PC-3 [4] came out at 18 µM.
In the assay with PC-3 [4], `COc1ccc(-c2nn(-c3ccccc3)cc2/C=C/C(=O)c2ccc(O)c3c2OC(C)(C)C3)cc1` returned an IC50 of 20.8 µM.
In the assay with PC-3 [4], `CC1(C)Cc2c(O)ccc(C(=O)/C=C/c3cn(-c4ccccc4)nc3-c3cccc([N+](=O)[O-])c3)c2O1` yielded a half-maximal inhibitory concentration (IC50) of 25.6 µM.
Regarding `COc1cccc2c1C(=O)c1c(O)c3c(c(O)c1C2=O)C[C@@](O)(C(=O)CO)C[C@@H]3O[C@H]1C[C@H](N)[C@H](O)[C@H](C)O1` [DOXORUBICIN], the half-inhibitory concentration (IC50) was 5.6 µM in the assay with NCI-H460 [1], 19.3 µM in the assay on HT-29 [2], 0.03 µM in the assay with B16 [3] and 5.9 µM with PC-3 [4].
